These results are taken from article PMC8842277, “Highly Antiproliferative Latonduine and Indolo[2,3-c]quinoline Derivatives: Complex Formation with Copper(II) Markedly Changes the Kinase Inhibitory Profile” (Journal of Medicinal Chemistry, 2022).

In test [1] the test system is normal human embryonal lung fibroblast cells (MRC-5). As to the kind of experiment: MTT antiproliferative assay. In kind it is cell-based. As to conditions: 72 h, read-out: IC50 MRC-5 benign, mean. As for the experimental part: (§1) The in vitro antiproliferative activity of the compounds was tested in doxorubicin-sensitive Colo205 and multidrug-resistant Colo320 human colon adenocarcinoma cell lines as well as in normal human embryonal lung fibroblast cells (MRC-5) by MTT assay.
(§2) Human colonic adenocarcinoma cell lines Colo 205 doxorubicin-sensitive (ATCC-CCL-222) and Colo 320/MDR-LRP multidrug resistant over-expressing ABCB1 (MDR1)-LRP (ATCC-CCL-220.1) were purchased from LGC Promochem, Teddington, UK. The cells were cultured in an RPMI 1640 medium supplemented with 10% heat-inactivated fetal bovine serum, 2 mM L-glutamine, 1 mM Na-pyruvate, and 10 mM HEPES. The semi-adherent human colon cancer cells were detached with Trypsin-Versene (EDTA) solution for 5 min at 37 °C. An MRC-5 human embryonal lung fibroblast cell line (ATCC CCL-171) was purchased from LGC Promochem, Teddington, UK. The cells were cultured in Eagle’s minimal essential medium (EMEM, containing 4.5 g L^–1 glucose) supplemented with a non-essential amino acid mixture, a selection of vitamins, and 10% heat-inactivated fetal bovine serum. The HCT-116 colon carcinoma cells and isogenic p53-knock-out subline were a gift of Prof. Bert Vogelstein from The Johns Hopkins Oncology Center. Cells were cultured in McCoy’s 5A medium supplemented with 10% heat-inactivated fetal bovine serum and 4 mM L-glutamine. All cell lines were incubated at 37 °C, in a 5% CO2, 95% air atmosphere.
(§3) MRC-5 non-cancerous human embryonic lung fibroblast and human colonic adeno-carcinoma cell lines (doxorubicin-sensitive Colo 205 and multidrug resistant Colo 320 colonic adenocarcinoma cells) were used to determine the effect of compounds on cell growth. The effects of increasing concentrations of compounds on cell growth were tested in 96-well flat-bottomed microtiter plates. The compounds were dissolved in DMSO and stock solutions of 10 mM were prepared. These were further diluted in the appropriate cell culture medium by twofold serial dilution starting from 100 or 10 μM for the compounds. The adherent human embryonal lung fibroblast cells were cultured in 96-well flat-bottomed microtiter plates using EMEM supplemented with 10% heat-inactivated fetal bovine serum. The density of the cells was adjusted to 1 × 10^4 cells in 100 μL per well, the cells were seeded for 24 h at 37 °C, 5% CO2, then the medium was removed from the plates containing the cells, and the dilutions of compounds previously made in a separate plate were added to the cells in 200 μL. In the case of the colonic adenocarcinoma cells, the twofold serial dilutions of compounds were prepared in 100 μL of RPMI 1640, horizontally. The semi-adherent colonic adenocarcinoma cells were treated with Trypsin-Versene (EDTA) solution. They were adjusted to a density of 1 × 10^4 cells in 100 μL of RPMI 1640 medium and were added to each well, with the exception of the medium control wells. The final volume of the wells containing compounds and cells was 200 μL. The culture plates were incubated at 37 °C for 72 h; at the end of the incubation period, 20 μL of MTT (thiazolyl blue tetrazolium bromide, Sigma) solution (from a stock solution of 5 mg mL^–1) was added to each well. After incubation at 37 °C for 4 h, 100 μL of sodium dodecyl sulfate (SDS) (Sigma) solution (10% in 0.01 M HCI) was added to each well and the plates were further incubated at 37 °C overnight. Cell growth was determined by measuring the optical density (OD) at 540/630 nm with a Multiscan EX ELISA reader (Thermo Labsystems, Cheshire, WA, USA). […] Curves were fitted by GraphPad Prism software[57] using the sigmoidal dose–response model (comparing variable and fixed slopes). The IC50 values were obtained from at least three independent experiments. Tests in adherent HCT-116 colon carcinoma cells and an isogenic p53-knock-out subline thereof were performed in a similar manner, with 1.5 × 10^3 cells seeded in 100 μL of McCoy’s 5A medium (Sigma-Aldrich) per well. […]

For test [2], the system named is multidrug-resistant Colo320 human colon adenocarcinoma cells. Put plainly: MTT antiproliferative assay. In kind it is cell-based. The settings on record: for selectivity factor (SF) Colo320: IC50 MRC-5/IC50 Colo320; for IC50: MTT, 72 h. As for the experimental part: as §1, §2, §3
(Tetrazolium dyes change colour on reduction, which living cells bring about.)

The test system of test [3] is doxorubicin-sensitive Colo205 human colon adenocarcinoma cells. Put plainly: MTT antiproliferative assay. In kind it is cell-based. As to conditions: for selectivity factor (SF) Colo205: IC50 MRC-5/IC50 Colo205; for IC50: MTT, 72 h. As to the method:
as §1, §2, §3

Test [4] relates to HCT-116 colon carcinoma cells. As to the kind of experiment: MTT assay, 96 h. In kind it is cell-based, human.
Source text: The oncosuppressor protein p53 controls the cellular response to DNA strand breaks induced by cytotoxic drugs or by radiation.[58] The p53 protein may enhance cell chemosensitivity by promoting apoptosis via different mechanisms including activation of proapoptotic genes such as bax and repression of antiapoptotic genes such as bcl-2 or in contrast increase chemoresistance by promoting p21-mediated and p21-independent growth arrest and DNA repair and by activation of antiapoptotic genes such as bcl-x. There is strong evidence that the modulation of drug sensitivity by p53 may be both drug- and cell type-specific.[59] […] Accordingly, essential differences in chemosensitivity were observed between cells with wild-type p53 gene and cells with knocked out p53 gene by homologous recombination.[60]
as §2
MRC-5 non-cancerous human embryonic lung fibroblast and human colonic adeno-carcinoma cell lines (doxorubicin-sensitive Colo 205 and multidrug resistant Colo 320 colonic adenocarcinoma cells) were used to determine the effect of compounds on cell growth. The effects of increasing concentrations of compounds on cell growth were tested in 96-well flat-bottomed microtiter plates. The compounds were dissolved in DMSO and stock solutions of 10 mM were prepared. These were further diluted in the appropriate cell culture medium by twofold serial dilution starting from 100 or 10 μM for the compounds. The adherent human embryonal lung fibroblast cells were cultured in 96-well flat-bottomed microtiter plates using EMEM supplemented with 10% heat-inactivated fetal bovine serum. The density of the cells was adjusted to 1 × 10^4 cells in 100 μL per well, the cells were seeded for 24 h at 37 °C, 5% CO2, then the medium was removed from the plates containing the cells, and the dilutions of compounds previously made in a separate plate were added to the cells in 200 μL. In the case of the colonic adenocarcinoma cells, the twofold serial dilutions of compounds were prepared in 100 μL of RPMI 1640, horizontally. The semi-adherent colonic adenocarcinoma cells were treated with Trypsin-Versene (EDTA) solution. They were adjusted to a density of 1 × 10^4 cells in 100 μL of RPMI 1640 medium and were added to each well, with the exception of the medium control wells. […]

A word on the IC50: it is the concentration that gives 50% inhibition. Take `CC(=NNC1=NCc2ccccc2-c2c1[nH]c1ccc(Br)cc21)c1ccc(CN2CCOCC2)cn1.[Cl][Cu][Cl]` [compound 4, CuCl2(HL^4)·0.5H2O]: the IC50 in test [1] turned out to be 397 nM; in test [2] it was 109 nM; in test [3], 220 nM; in test [4] it was 130 nM. For the same molecule, the “selectivity factor (SF) Colo320” value in test [2] came to 3.64. Besides, the “selectivity factor (SF) Colo205” value in test [3] is listed as 1.80.
Consider `CC(=NNc1nc2ccccc2c2c1[nH]c1ccc(Br)cc12)c1ccc(CN2CCOCC2)cn1.[Cl][Cu][Cl]` [compound 8, CuCl2(HL^8)·H2O], for which the IC50 in test [1] amounted to 165 nM; in test [2], 547 nM; in test [3] it was 38 nM; in test [4], 50 nM. Besides, the “selectivity factor (SF) Colo320” value in test [2] was found to be 0.30. Besides, the “selectivity factor (SF) Colo205” value in test [3] is 4.38.
